Experimental data from patent publication US20180214463A1, “USE OF PHYTIC ACID OR THE SALTS THEREOF, ALONE OR COMBINED WITH B6 VITAMERS, FOR PREVENTING THE FORMATION OF ADVANCED GLYCATION END-PRODUCT” (UNIVERSITAT DE LES ILLES BALEARS, priority 2015, published 2018).

Assays:
diabetic patients = test: Clinical trial of phytate (phytin) in diabetic patients: plasma HbA1c and AGEs, urinary phytate; assay type: in vivo, human
formation of AGEs = test: In vitro formation of AGEs (ribose, arginine, lysine, Fe3+; fluorescence at 7 days); assay type: biochemical; settings: 37° C., vs control without inhibitors
Protocol: In an in vitro study, the inhibiting effect of phytate alone or in combination with pyridoxamine on the formation of AGEs was compared (see FIG. 2). […] In these studies, the formation of AGEs was induced by incubating a reaction mixture containing ribose (200 mM) (taken as the model reducing sugar), 1 mM arginine, 2 mM lysine (as glycation targets), and 2 μM Fe^3 (as a glycation catalyzer) with various concentrations of phytate and pyridoxamine alone or in combination at 37° C. for 7 days (in a 0.2 M phosphate buffer). The quantity of AGEs present at 7 days was determined by fluorescence.

Row | Structure (SMILES) | decrease in plasma AGEs (diabetic patients; 1,140 mg phytate (as phytin) daily for 3 months, 33 diabetic patients, p<0.001) | decrease in plasma glycated hemoglobin (HbA1c) (diabetic patients; 1,140 mg phytate (as phytin) daily for 3 months, 33 diabetic patients, p=0.017) | increase in the urinary excretion of phytate (diabetic patients; 1,140 mg phytate (as phytin) daily for 3 months, p=0.026) | plasma levels of HbA1c and AGEs after withdrawal (diabetic patients; three months without phytate, after three months of consuming it) | inhibition of the formation of AGEs (formation of AGEs; 1 μM inhibitor alone) | inhibition of the formation of AGEs (formation of AGEs; 2 μM inhibitor alone) | inhibition of the formation of AGEs (formation of AGEs; 2.5 μM inhibitor alone)
1 | O=P(O)(O)O[C@H]1[C@H](OP(=O)(O)O)[C@@H](OP(=O)(O)O)[C@H](OP(=O)(O)O)[C@@H](OP(=O)(O)O)[C@H]1OP(=O)(O)O [phytate, myo-inositol-hexaphosphate] | ~25.1% | ~3.9% | 33.6% | returning to levels similar to the baselines | 12.7% | 19.9% | –
2 | Cc1ncc(CO)c(CN)c1O [pyridoxamine] | – | – | – | – | 17.5% | – | 28.2%
